{"source": "patent US8642646B2", "about": "“Method and composition for treating acne using lignan compounds” (New Tree Industry Co., Ltd., priority 2004, dated 2014)", "key": {"Propionibacterium acnes [1]": {"test_system": "Propionibacterium acnes", "details": "literature values; cited from earlier work"}, "Propionibacterium acnes [2]": {"test_system": "Propionibacterium acnes", "test": "Growth inhibition of Propionibacterium acnes by viable cell counting", "assay_type": "cell-based", "details": "37° C.", "procedure": "The macelignan compound prepared in Example <1-1> was dissolved in dimethylsulfoxide to concentrations of 0.002%, 0.001% and 0.0005%, respectively. 100 μl of Propionibacterium acnes diluted to 2×10^5 CFU/ml was added to test tubes containing the macelignan solutions and allowed to react at 37° C. for 2 hr, 4 hr, 8 hr, 12 hr, 16 hr, 20 hr, and 24 hr. Each sample was serially diluted 10-fold and subjected to the pour plate method. The plates were cultured in an incubator at 37° C. and measured for viable cell colonies of Propionibacterium acnes."}, "Propionibacterium acnes [3]": {"test_system": "Propionibacterium acnes", "test": "Minimum inhibitory concentration (MIC), broth serial dilution", "assay_type": "cell-based", "details": "Cutibacterium acnes; BHI broth, 37° C., at least 24 hours; read-out: Minimum inhibitory concentration against Propionibacterium acnes", "procedure": "(§1) The macelignan compound prepared in Example <1-1> was dissolved in 0.5% methanol, and 1 ml of BHI (Brain Heart Infusion) broth was placed into each of test tubes. 1 ml of 2% macelignan solution was placed only into the first test tube and serially diluted 2-fold. Then, 100 μl of Propionibacterium acnes were added at 2×10^5 CFU/ml to each test tube and cultured at 37° C. for at least 24 hours. […] Using the same method, the minimum inhibitory concentrations against Staphylococcus aureus and Staphylococcus epidermis were also measured and the results are shown in Table 2."}, "Staphylococcus aureus": {"test_system": "Staphylococcus aureus", "test": "Minimum inhibitory concentration (MIC), broth serial dilution", "assay_type": "cell-based", "details": "same method, read-out: Minimum inhibitory concentration against Staphylococcus aureus", "procedure": "as §1"}, "Staphylococcus epidermis": {"test_system": "Staphylococcus epidermis", "test": "Minimum inhibitory concentration (MIC), broth serial dilution", "assay_type": "cell-based", "details": "same method, read-out: Minimum inhibitory concentration against Staphylococcus epidermis", "procedure": "as §1"}, "acne-causing bacteria": {"test_system": "acne-causing bacteria", "test": "Thermal stability: antibacterial activity by well diffusion assay after thermal treatment", "assay_type": "cell-based", "details": "for Diameter of clear zone on the plate containing macelignan: 0.1% in dimethylsulfoxide", "procedure": "The macelignan compound prepared in Example <1-1> was dissolved in dimethylsulfoxide to a concentration of 0.1%. The sample was thermally treated for 30 minutes at different temperatures of 60° C., 70° C., 80° C., 90° C., 100° C., and 121° C. and measured for antibacterial activity by the well diffusion assay."}, "acne patients": {"test_system": "acne patients", "test": "Clinical test on acne patients, oral administration", "assay_type": "in vivo, human", "procedure": "The macelignan isolated and purified in Example <1-1> was clinically tested for acne treatment. • 30 men and women in their mid-30s, who suffer from acne, were selected as test subjects. The macelignan was administered to the test subjects at 600 mg two times a day for 4 weeks."}, "[4]": {"details": "oral 600 mg two times a day, 4 weeks"}}, "data": [{"compound": "CC1=CCC(O)(C(C)C)CC1", "note": "(stereo not drawn) [terpinen-4-ol]", "values": [{"measurement": "MIC against Propionibacterium acnes", "setting": "Propionibacterium acnes [1]", "value": "300 to 500", "unit": "µg/mL"}]}, {"compound": "O=C(OOC(=O)c1ccccc1)c1ccccc1", "note": "[benzoyl peroxide]", "values": [{"measurement": "MIC against Propionibacterium acnes", "setting": "Propionibacterium acnes [1]", "value": "500 to 1000", "unit": "µg/mL"}]}, {"compound": "benzalkonium chloride", "values": [{"measurement": "MIC against Propionibacterium acnes", "setting": "Propionibacterium acnes [1]", "value": "200˜300 μg/ml"}]}, {"compound": "COc1cc(C[C@H](C)[C@H](C)Cc2ccc3c(c2)OCO3)ccc1O", "note": "[macelignan]", "values": [{"measurement": "time within which the bacteria were almost dead", "setting": "Propionibacterium acnes [2]; macelignan 0.001% (10 μg/ml)", "value": "≤ 8", "unit": "h"}, {"measurement": "time within which the bacteria were almost dead", "setting": "Propionibacterium acnes [2]; macelignan 0.002% (20 μg/ml)", "value": "≤ 2", "unit": "h"}, {"measurement": "MIC", "setting": "Propionibacterium acnes [3]", "value": 2, "unit": "µg/mL"}, {"measurement": "MIC", "setting": "Staphylococcus aureus", "value": 125, "unit": "µg/mL"}, {"measurement": "MIC", "setting": "Staphylococcus epidermis", "value": 64, "unit": "µg/mL"}, {"measurement": "Diameter of clear zone on the plate containing macelignan", "setting": "acne-causing bacteria; treated 30 minutes at 60° C.", "value": 17, "unit": "mm"}, {"measurement": "Diameter of clear zone on the plate containing macelignan", "setting": "acne-causing bacteria; treated 30 minutes at 70° C.", "value": 16, "unit": "mm"}, {"measurement": "Diameter of clear zone on the plate containing macelignan", "setting": "acne-causing bacteria; treated 30 minutes at 80° C.", "value": 17, "unit": "mm"}, {"measurement": "Diameter of clear zone on the plate containing macelignan", "setting": "acne-causing bacteria; treated 30 minutes at 90° C.", "value": 17, "unit": "mm"}, {"measurement": "Diameter of clear zone on the plate containing macelignan", "setting": "acne-causing bacteria; treated 30 minutes at 100° C.", "value": 18, "unit": "mm"}, {"measurement": "Diameter of clear zone on the plate containing macelignan", "setting": "acne-causing bacteria; treated 30 minutes at 121° C.", "value": 17, "unit": "mm"}, {"measurement": "thermal stability (change of antibacterial activity after thermal treatment)", "setting": "acne-causing bacteria; thermal treatment at 60° C.-121° C.", "value": "little or no reduction in antibacterial activity"}, {"measurement": "Comedos, mean number after 4 weeks of administration", "setting": "acne patients; [4]", "value": 7.94}, {"measurement": "Nodules, mean number after 4 weeks of administration", "setting": "acne patients; [4]", "value": 0.24}, {"measurement": "Papules, mean number after 4 weeks of administration", "setting": "acne patients; [4]", "value": 5.69}, {"measurement": "Pustules, mean number after 4 weeks of administration", "setting": "acne patients; [4]", "value": 2.30}, {"measurement": "number of lesions after 4 weeks compared to before administration", "setting": "acne patients; oral 600 mg two times a day, 4 weeks, p-value<0.05", "value": "remarkably reduced"}, {"measurement": "Comedos, mean number before administration", "setting": "acne patients; oral, before administration", "value": 18.92}, {"measurement": "Nodules, mean number before administration", "setting": "acne patients; oral, before administration", "value": 0.74}, {"measurement": "Papules, mean number before administration", "setting": "acne patients; oral, before administration", "value": 14.47}, {"measurement": "Pustules, mean number before administration", "setting": "acne patients; oral, before administration", "value": 5.92}]}]}
